Measured values: US10071960B1, “Enaminone-grafted trithiocarbonate with anticancer and antimicrobial activity” (KING SAUD UNIVERSITY, priority 2017, dated 2018)
Converted amounts (≈) assume the structure as drawn.

Assays:
LoVo Colon cancer cells [1] = assay: MTT antiproliferative assay, LoVo; type: cell-based; details: Homo sapiens, 48 hours
Procedure: (§1) HepG2 (human hepatocarcinoma), LoVo (human colorectal adenocarcinoma) and MDA-MB-231 (human breast cancer) cancer cell lines were selected for the in vitro antiproliferative activity. Cells were seeded in 24-well plates at a density of 50,000 cells/well for 24 hours for adherent. After 24 hours, cells were treated with increasing concentrations of compound 3 or an equal volume of vehicle (DMSO) as a control and were incubated for 48 hours. 100 μL of MTT reagent (5 mg/ml) were added. The plates were incubated for 2 hours and absorbance was determined at 540 nm in an ELISA plate reader (Thermo, USA). Percentages of cell survival were calculated as follows: % cell survival=(absorbance of treated cells/absorbance of cells with vehicle solvent)×100. The 50% inhibitory concentration (IC50) was calculated from the dose-response curve obtained by plotting the percentage of cell survival versus the concentration of compound 3.

HepG2 Liver cancer cells = assay: MTT antiproliferative assay, HepG2; type: cell-based; details: Homo sapiens, 48 hours
Procedure: as §1

[2] = tested on: MDA-MB-231 Breast Cancer cells; assay: MTT antiproliferative assay, MDA-MB-231; type: cell-based; details: Homo sapiens, MDA-MB-231 cells, 48 hours
Procedure: as §1

[3] = tested on: Hepg2, LoVo, and MDA-MB-231 cell lines; assay: MTT growth inhibition, all three tested human tumor cells; type: cell-based; details: 48 hours, read-out: IC50 concentrations, range over all three tested human tumor cells
Procedure: as §1

LoVo Colon cancer cells [4] = assay: LDH release cytotoxicity assay, LoVo; type: cell-based, human; details: treated with IC50 for 48 hours; FIGS. 7 and 8A-8F
Procedure: Lactate dehydrogenase (LDH) assay was performed to assess the LDH release into the media following compound 3 treatments (IC50) on HepG2, LoVo and MDA-MB-231 cells after 48 hours of incubation. LDH cytotoxicity assay was carried out using an in vitro toxicology assay kit (Sigma Aldrich Inc., USA), according to protocol in the user's manual. The amount of LDH released in culture media was measured at 490 nm using an ELISA plate reader (Thermo, USA).

Bacillus subtilis = assay: In vitro antimicrobial activity (MIC, MBC); type: cell-based; details: FIGS. 4 and 5
Procedure: (§2) Biological activity of compound 3 as antimicrobial agents was performed according to (Lam et al. 2016). Lyophilized cultures of Streptococcus nutans ATCC 35668, Bacillus subtilis and Brevibacillus laterosporus Wild strains (Gram positive bacteria), Salmonella typhi Wild strain (Gram negative bacteria), Candid albicans ATCC 60193 (yeast), Cryptococcus neoformans Wild strain (yeast), Aspergillus fumigatus AUMC 8794 (mold), and Penicillium chrysogenum AUMC (mold) were grown aerobically on the appropriate medium and in incubating conditions before minimal inhibitory, minimal Bactericidal, and minimal fungicidal concentration testing (MIC, MBC, and MFC). […]
(§3) The total count of microbes was counted by measurement of bacterial and yeast cells; and spores of mold using hemocytometer and account at 400×.
(§4) The bacterial suspensions were prepared from bacterial cultures which gave an optical density reading of ˜0.9 at 620 nm. […]
(§5) To determine MIC of the compound 3, a Mueller-Hinton broth and Potato dextrose broth were used for bacteria and fungi, respectively. […] After incubation, the microbial growth was detected in the wells by p-iodonitrotetrazolium violet (Sigma, USA) reagent. […] Data are expressed as mean±s.d. of the biological replicates and statistically analyzed using One-Way ANOVA analysis using Tukey test (P<0.05) (SPSS, 13.0).

[5] = tested on: Brevibacillus laterosporus Wild strain; assay: In vitro antimicrobial activity (MIC, MBC); type: cell-based; details: FIGS. 4 and 5
Procedure: as §2, §3, §4, §5

[6] = tested on: Candida albicans ATCC 60193; assay: In vitro antimicrobial activity (MIC, MFC); type: cell-based; details: C. albicans; FIGS. 4 and 5
Procedure: as §2, §3, §4, §5

[7] = tested on: Cryptococcus neoformans Wild strain; assay: In vitro antimicrobial activity (MIC, MFC); type: cell-based; details: Cr. neformans; FIGS. 4 and 5
Procedure: as §2, §3, §4, §5

For `CCOC(=O)C(=CN(C)C)SC(=S)SC(=CN(C)C)C(=O)OCC` (stereo in doubt) [compound 3, (Z)-ethyl 3-(dimethylamino)-2-(((((Z)-1-(dimethylamino)-3-ethoxy-3-oxoprop-1-en-2-yl)thio)carbonothioyl)thio)acrylate], the IC50 (LoVo Colon cancer cells [1]) was 37.5 µg/mL (≈ 95.5 µM), the IC50 (HepG2 Liver cancer cells) was 38 µg/mL (≈ 96.8 µM) and the IC50 [2] was 45 µg/mL (≈ 115 µM). For the same compound, the IC50 [3] was 37.5 to 45 µg/mL (≈ 95.5 to 115 µM), the “cytotoxic effects (LDH release, morphology) compared between tumor cell lines” value (LoVo Colon cancer cells [4]) was “more active” and the “MIC, MBC and MFC: susceptibility compared to other tested microorganisms” value (Bacillus subtilis) was “resistant”. The “MIC, MBC and MFC: susceptibility compared to other tested microorganisms” value [5] was “resistant”, the “MIC, MBC and MFC: susceptibility compared to other tested microbes” value [6] was “more susceptible” and the “MIC, MBC and MFC: susceptibility compared to other tested microbes” value [7] was “more susceptible”.
